# Data as given in US11932624B2, “MDM2 degraders and uses thereof” (Kymera Therapeutics, Inc., priority 2020, dated 2024).
# pIC50: −log10 of the molar value.
# Tested on: RS411 cells
# Assay: Cell Viability CTG Assay (CellTiter Glo) in RS411 cells
# Assay type: cell-based
# Conditions: Homo sapiens, RS4-11, 24 h, duration 1 day
# Description: Example 23. Cell Viability CTG Assay
# Day 0: Compounds or DMSO 60 nL were stamped to the cell plate as the platemap. RS411 cells were centrifuged at 800 rpm for 5 min, suspended with culture medium, and counted with Countess (Invitrogen). The cell density was adjusted to the recommend information. 30 μL of cell solution (1000 cells/well) was added to the assay plate as the platemap and 30 uL of media was added to column 2 and column 23 as the platemap. The plate was spun down briefly. The final concentration of the compounds started at 10 μM (3 fold dilution and 11 doses) and final DMSO concentration was 0.2%. The plate was spun down briefly and incubated at 37° C., 5% CO2 for 1-4 days.
# 30 μL CellTiter Glo reagent was added to each well and the plate was centrifuged at 1000 rpm for 30 sec. The plate was shaken for 1 min and centrifuged at 1000 rpm for 30 sec. The plate was incubated at RT for 10 min to stabilize the luminescent signal and the luminescence was read by EnVision.
# The letter codes for IC50 indicate the concentration of compound required to affect 50% of cells: A (<0.05 μM), B (0.05-0.1 μM), C (0.1-0.5 μM), D (0.5-1.0 μM), and E (>1.0 μM).
row,SMILES,pIC50
1,Cn1c(=O)n(C2CCC(=O)NC2=O)c2cccc(C#CCNC(=O)c3ccc(NC(=O)[C@@H]4NC5(CCCCC5)[C@@]5(C(=O)Nc6cc(Cl)ccc65)[C@H]4c4cccc(Cl)c4F)cc3)c21 (some centres unmarked) [I-46],> 7.30
2,Cn1c(=O)n(C2CCC(=O)NC2=O)c2cccc(C#CCCCNC(=O)c3ccc(NC(=O)[C@@H]4NC5(CCCCC5)[C@@]5(C(=O)Nc6cc(Cl)ccc65)[C@H]4c4cccc(Cl)c4F)cc3)c21 (some centres unmarked) [I-51],> 7.30
3,CN(CCCOCCCc1cccc2c1n(C)c(=O)n2C1CCC(=O)NC1=O)C(=O)c1ccc(NC(=O)[C@@H]2NC3(CCCCC3)[C@@]3(C(=O)Nc4cc(Cl)ccc43)[C@H]2c2cccc(Cl)c2F)cc1 (some centres unmarked) [I-52],> 7.30
4,Cn1c(=O)n(C2CCC(=O)NC2=O)c2cccc(CCC3CC4(CCN(C(=O)c5ccc(NC(=O)[C@@H]6NC7(CCCCC7)[C@@]7(C(=O)Nc8cc(Cl)ccc87)[C@H]6c6cccc(Cl)c6F)cc5)CC4)C3)c21 (some centres unmarked) [I-53],7.00 to 7.30
5,O=C1CCC(n2c(=O)oc3c(CCCOC4CCN(C(=O)c5ccc(NC(=O)[C@@H]6NC7(CCCCC7)[C@@]7(C(=O)Nc8cc(Cl)ccc87)[C@H]6c6cccc(Cl)c6F)cc5)CC4)cccc32)C(=O)N1 (some centres unmarked) [I-54],7.00 to 7.30
6,Cn1c(=O)n(C2CCC(=O)NC2=O)c2cccc(N3CCC4(CCN(C(=O)c5ccc(NC(=O)[C@@H]6NC7(CCCCC7)[C@@]7(C(=O)Nc8cc(Cl)ccc87)[C@H]6c6cccc(Cl)c6F)cc5)CC4)CC3)c21 (some centres unmarked) [I-55],7.00 to 7.30
7,O=C1CCC(n2c(=O)oc3cc(CCCOCCOCCNC(=O)c4ccc(NC(=O)[C@@H]5NC6(CCCCC6)[C@@]6(C(=O)Nc7cc(Cl)ccc76)[C@H]5c5cccc(Cl)c5F)cc4)ccc32)C(=O)N1 (some centres unmarked) [I-57],> 7.30
8,Cn1c(=O)n(C2CCC(=O)NC2=O)c2cccc(NCC3CC4(C3)CN(C(=O)c3ccc(NC(=O)[C@@H]5NC6(CCCCC6)[C@@]6(C(=O)Nc7cc(Cl)ccc76)[C@H]5c5cccc(Cl)c5F)cc3)C4)c21 (some centres unmarked) [I-59],> 7.30
9,Cn1c(=O)n(C2CCC(=O)NC2=O)c2cccc(C#CCN3CCC4(CC3)CN(C(=O)c3ccc(NC(=O)[C@@H]5NC6(CCCCC6)[C@@]6(C(=O)Nc7cc(Cl)ccc76)[C@H]5c5cccc(Cl)c5F)cc3)C4)c21 (some centres unmarked) [I-60],> 7.30
10,CN(CCC#Cc1cccc2c1n(C)c(=O)n2C1CCC(=O)NC1=O)C(=O)c1ccc(NC(=O)[C@@H]2NC3(CCCCC3)[C@@]3(C(=O)Nc4cc(Cl)ccc43)[C@H]2c2cccc(Cl)c2F)cc1 (some centres unmarked) [I-62],7.00 to 7.30

# Second part, the compound after the results:
row,pIC50,SMILES
1,7.00 to 7.30,Cn1c(=O)n(C2CCC(=O)NC2=O)c2cccc(C#C[C@@H]3CN(C(=O)c4ccc(NC(=O)[C@@H]5NC6(CCCCC6)[C@@]6(C(=O)Nc7cc(Cl)ccc76)[C@H]5c5cccc(Cl)c5F)cc4)CCO3)c21 (some centres unmarked) [I-47]
2,> 7.30,Cn1c(=O)n(C2CCC(=O)NC2=O)c2ccc(C#CCCNC(=O)c3ccc(NC(=O)[C@@H]4NC5(CCCCC5)[C@@]5(C(=O)Nc6cc(Cl)ccc65)[C@H]4c4cccc(Cl)c4F)cc3)cc21 (some centres unmarked) [I-48]
3,> 7.30,Cn1c(=O)n(C2CCC(=O)NC2=O)c2cccc(CN3CCC(OC4CCN(C(=O)c5ccc(NC(=O)[C@@H]6NC7(CCCCC7)[C@@]7(C(=O)Nc8cc(Cl)ccc87)[C@H]6c6cccc(Cl)c6F)cc5)CC4)CC3)c21 (some centres unmarked) [I-49]
4,> 7.30,Cn1c(=O)n(C2CCC(=O)NC2=O)c2cccc(CCCC(=O)N3CCN(C(=O)c4ccc(NC(=O)[C@@H]5NC6(CCCCC6)[C@@]6(C(=O)Nc7cc(Cl)ccc76)[C@H]5c5cccc(Cl)c5F)cc4)CC3)c21 (some centres unmarked) [I-50]
5,> 7.30,CN(C[C@@H]1CN(CC#Cc2ccc3c(c2)n(C)c(=O)n3C2CCC(=O)NC2=O)CCO1)C(=O)c1ccc(NC(=O)[C@@H]2NC3(CCCCC3)[C@@]3(C(=O)Nc4cc(Cl)ccc43)[C@H]2c2cccc(Cl)c2F)cc1 (some centres unmarked) [I-56]
6,> 7.30,Cn1c(=O)n(C2CCC(=O)NC2=O)c2cccc(C3CCN(C(=O)c4ccc(NC(=O)[C@@H]5NC6(CCCCC6)[C@@]6(C(=O)Nc7cc(Cl)ccc76)[C@H]5c5cccc(Cl)c5F)cc4)CC3)c21 (some centres unmarked) [I-58]
7,> 7.30,Cn1c(=O)n(C2CCC(=O)NC2=O)c2cccc(CCN3CC4(CCN(C(=O)c5ccc(NC(=O)[C@@H]6NC7(CCCCC7)[C@@]7(C(=O)Nc8cc(Cl)ccc87)[C@H]6c6cccc(Cl)c6F)cc5)CC4)C3)c21 (some centres unmarked) [I-61]
